Data as given in article PMC7407272, “Induction of Lysosome Membrane Permeabilization as a Therapeutic Strategy to Target Pancreatic Cancer Stem Cells” (Cancers, 2020).

Tests used:
PDAC4 3D spheres = assay: Viability curves on PDAC4 3D spheres; format: cell-based, human; settings: 30 h
From the text: The PDAC patient-derived xenograft (PDX) Panc354 (referred to hereafter as PDAC3) was obtained from Dr. Manuel Hidalgo under a Material Transfer Agreement with the Spanish National Cancer Centre (CNIO), Madrid, Spain (Reference no. I409181220BSMH). PDAC1, PDAC2 and PDAC4 PDXs were established from primary patient resected tumors. Samples were provided by the BioBank Hospital Ramón y Cajal-IRYCIS (PT13/0010/0002), integrated in the Spanish National Biobanks Network and they were processed following standard operating procedures with the appropriate approval of the Ethical and Scientific Committees (Control no. No. Control: DE-BIOB-73 AC65, RG.BIOB-96 REV, and CI-BIOB-08-10-01 rev), with informed consent and according to Declaration of Helsinki principles. Primary patient tumors were subcutaneously implanted in immunocompromised female 6- to 8-week-old NU-Foxn1nu nude mice (Envigo, Barcelona, Spain) and subsequently passage in vivo to establish PDX PDAC1, PDAC2 and PDAC4. Primary PDX-derived in vitro cultures were established as previously detailed. […]
Pancreatic CSC spheres were generated as previously described in ultra-low attachment plates (Corning) using CSC media: serum-free DMEM/F12 medium (1:1; #21331-020; Gibco, Waltham, MA, USA), supplemented with Pen/Strep (1:100; #1500-063; Gibco, Waltham, MA, USA), Fungizone (1:250; #15290-018; Gibco), L-Glutamine (1:100; #25030-024; Gibco, Waltham, MA, USA), B-27 (1:50; #17504-044; Gibco, Waltham, MA, USA) and basic fibroblast growth factor (FGF-b) (1:5000; Gibco, Waltham, MA, USA). […] To quantify spheres of > 40 μm, 1 mL of sample volume was analyzed with a CASY® Cell Counter (Roche Applied Sciences, Mannheim, Germany). […]

[1] = mESC viability (MTS) screen and dose response; format: cell-based, mouse; settings: mouse, mouse embryonic stem cells (mESCs), 5 µM, MTS
Description: (§1) Mouse embryonic stem cells were cultured in Dulbecco’s Modified Eagle Medium (DMEM) containing 15% Fetal bovine serum (FBS), non-essential amino acids (NEAA), 2-mercaptoethanol, and Leukemia inhibitory factor (LIF) and passaged on gelatinized plates under standard conditions.
(§2) Murine embryonic stem cells (mESCs) were plated at 20,000 cells per well in gelatinized 96 well plates. Compounds from the 640 compound ETP library were added by a Beckman FX 96 tip to achieve a final concentration of 5 µM in each well, and each compound was tested in duplicate. Cells were treated for a total of 30 h prior to assessing cell viability using CellTiter 96® AQueous One Solution Cell Proliferation Assay (MTS) assay according to manufacturer’s instructions (G3582, Promega, Madison, WI, USA). Dose response curves were carried out on mESCs under the same conditions using indicated compounds. To test the viability of CSCs, 10,000 PDAC cells were plated in spheroid conditions and immediately treated with indicated compounds and concentrations for the duration of the sphere formation assay. For adherent non-CSCs, 20,000 cells were plated in wells of standard tissue culture-treated plates (Corning, Corning, NY, USA) and treated the following day with indicated compounds and concentrations. For re-plated spheres (Figure S1B), 7-day-old spheres were filtered using a 40 µM filter (Fisher Scientific, Hampton, NH, USA), washed once with 1× PBS, and incubated with trypsin 0.05% EDTA at 37 °C (Thermo Fisher Scientific, Waltham, MA, USA) to achieve a single cell suspension (approximately 10–30 min, depending on the PDAC culture). Trypsinized cells were counted and 20,000 cells were plated in wells of standard tissue culture-treated plates (Corning) and treated the following day with indicated compounds and concentrations.

[2] = test system: mouse embryonic stem cells (mESCs); assay: mESC viability (MTS) screen and dose response; format: cell-based; settings: Mus musculus, Embryonic stem cell, 30 h
Description: as §1, §2

PDAC2 3D spheres = assay: Viability curves on PDAC2 3D spheres; format: cell-based, human; settings: Homo sapiens, PDAC-2, 30 h; read-out: EC50 (viability), PDAC2 spheres
From the text: The PDAC patient-derived xenograft (PDX) Panc354 (referred to hereafter as PDAC3) was obtained from Dr. Manuel Hidalgo under a Material Transfer Agreement with the Spanish National Cancer Centre (CNIO), Madrid, Spain (Reference no. I409181220BSMH). PDAC1, PDAC2 and PDAC4 PDXs were established from primary patient resected tumors. Samples were provided by the BioBank Hospital Ramón y Cajal-IRYCIS (PT13/0010/0002), integrated in the Spanish National Biobanks Network and they were processed following standard operating procedures with the appropriate approval of the Ethical and Scientific Committees (Control no. No. Control: DE-BIOB-73 AC65, RG.BIOB-96 REV, and CI-BIOB-08-10-01 rev), with informed consent and according to Declaration of Helsinki principles. Primary patient tumors were subcutaneously implanted in immunocompromised female 6- to 8-week-old NU-Foxn1nu nude mice (Envigo, Barcelona, Spain) and subsequently passage in vivo to establish PDX PDAC1, PDAC2 and PDAC4. Primary PDX-derived in vitro cultures were established as previously detailed. Briefly, xenografts were minced, enzymatically digested with collagenase (Stem Cell Technologies) for 60 min at 37 °C and after centrifugation for 5 min at 1800 rpm, the cell pellets were resuspended and cultured in RPMI (1:1; #61870-010; Gibco, Waltham, MA, USA) supplemented with 10% FBS (Invitrogen, Waltham, MA, USA), Pen/Strep (1:100; #1500-063; Gibco, Waltham, MA, USA), and Fungizone (1:250; #15290-018; Gibco, Waltham, MA, USA). Primary cultures were tested for Mycoplasma at least every 4 weeks.
(§3) Pancreatic CSC spheres were generated as previously described in ultra-low attachment plates (Corning) using CSC media: serum-free DMEM/F12 medium (1:1; #21331-020; Gibco, Waltham, MA, USA), supplemented with Pen/Strep (1:100; #1500-063; Gibco, Waltham, MA, USA), Fungizone (1:250; #15290-018; Gibco), L-Glutamine (1:100; #25030-024; Gibco, Waltham, MA, USA), B-27 (1:50; #17504-044; Gibco, Waltham, MA, USA) and basic fibroblast growth factor (FGF-b) (1:5000; Gibco, Waltham, MA, USA). All cell culture was carried out at 37 °C in a 5% CO2 humidified incubator. To quantify spheres of > 40 μm, 1 mL of sample volume was analyzed with a CASY® Cell Counter (Roche Applied Sciences, Mannheim, Germany). The CASY® Cell Counter measuring principle is based on a capillary particle counter with pulse area analysis, that permits the determination of cell count, cell concentration, cell volume (peak), and average cell diameter, specifically diameters of 40–80 μm, 80–120 μm and >120 μm.
Murine embryonic stem cells (mESCs) were plated at 20,000 cells per well in gelatinized 96 well plates. Compounds from the 640 compound ETP library were added by a Beckman FX 96 tip to achieve a final concentration of 5 µM in each well, and each compound was tested in duplicate. Cells were treated for a total of 30 h prior to assessing cell viability using CellTiter 96® AQueous One Solution Cell Proliferation Assay (MTS) assay according to manufacturer’s instructions (G3582, Promega, Madison, WI, USA). Dose response curves were carried out on mESCs under the same conditions using indicated compounds. To test the viability of CSCs, 10,000 PDAC cells were plated in spheroid conditions and immediately treated with indicated compounds and concentrations for the duration of the sphere formation assay. […]

PDAC3 xenografts = assay: PDX treatment in nude mice; format: in vivo, NU-Foxn1nu nude mice; settings: PDAC3 PDX; GEM 125 mg/kg i.p. biweekly, SIR 30 mg/kg oral gavage; 23 days
Description: (§4) Cells were analyzed with a 4-laser Attune NxT Acoustic Cytometer (ThermoFisher Scientific). Cells and digested tumors (as described in [41]) were resuspended in FLOW buffer (1X PBS; 3 mM EDTA (v/v); 3% FBS (v/v)), and the following fluorescently-tagged antibodies were used to label cells for 30 min at 4 °C: Mouse monoclonal anti-human CD133-PE (1:20, Cat no. 130-110-962, Miltenyi, Bergisch Gladbach, Germany), Mouse monoclonal anti-human CD133-APC (1:20, Cat no. 130-111-080, Miltenyi, Bergisch Gladbach, Germany), mouse monoclonal anti-human C-X-C chemokine receptor type 4- Phycoerythrin (CXCR4-PE) (1:20, Cat no. 130-117-354, Miltenyi, Bergisch Gladbach, Germany), or mouse monoclonal anti-human Epithelial cell adhesion molecule-fluorescein isothiocyanate (EpCAM-FITC) (1:20, Cat no. 130-111-115, Miltenyi, Bergisch Gladbach, Germany). Autofluorescent cells were excited with blue laser 488nm and selected as the intersection with the filters 530/40 and 580/30 as previously described. For lysosomes quantification, Acridine Orange (AO) (A1301, Thermo Fisher Scientific, Waltham, MA, USA) or Lysotracker Deep Red (DR) (L12492, Molecular probes, Life Technologies, Waltham, MA, USA) were used. AO fluorescence was assessed with two combinations of excitation and emission spectra: BL1 […] BL3 (Ex488/Em695/40, equal to the far-red channel (>670 nm)) Lysotracker DR fluorescence was assessed with RL1 (Ex638/Em670/14). Bafilomycin A1 (100 nM, Calbiochem, San Diego, CA, USA) was included as a positive control for lysosome disruption. For Annexin V staining, floating and attached cells were pooled and resuspended in 1× AnnexinV staining buffer containing AnnexinV-APC diluted 1:20 (Biotium, Freemont, CA, USA) and incubated for 20 min at room temperature prior to flow cytometric analysis. For all assays, DAPI was used to mark and exclude dead cells, and data were analyzed using the software FlowJo v9.3 (Tree Star Inc., Ashland, OR, USA).
(§5) Female 6- to 8-week-old NU-Foxn1nu nude mice (Envigo, Spain) were subcutaneously injected with control or pre-treated 1 × 10^4 PDAC cells in 50 µL of Matrigel^TM (Corning). Tumor growth was monitored bi-weekly for up to 10 weeks. For Siramesine experiments, mice were subcutaneously implanted with PDAC1 and PDAC3 PDXs. After 4 weeks of tumor growth, mice were randomized into treatment groups (5 mice per group). Mice were treated with Siramesine twice a week (30 mg/kg by oral gavage formulated in 0.5% methylcellulose 15 cP in 0.9% NaCl solution) for ~4 weeks. Gemcitabine (GEMZAR®, Eli Lilly, Indianapolis, IN, USA) was administered twice a week (125 mg/kg i.p.) for ~4 weeks. Tumor volumes (mm^3) were determined twice per week using a digital caliper. Mice were sacrificed at 24 days post treatment initiation and tumors were extracted and analyzed by flow cytometry as described above. For second generation tumor formation, 1000 and 100 cells of indicated treatment groups were resuspended in Matrigel ^TM and injected subcutaneously in recipient NU-Foxn1nu nude mice and tumor formation was monitored for 10 weeks. Mice were housed according to institutional guidelines and all experiments were performed in compliance with the institutional guidelines for the welfare of experimental animals approved by the Universidad Autónoma de Madrid Ethics Committee (CEI 60-1057-A068) or by the Instituto de Salud Carlos III Ethics Committee (CBA12_2014-v3) and La Comunidad de Madrid (PROEX 335/14 or PROEX 53/14) and in accordance with the guidelines for Ethical Conduct in the Care and Use of Animals as stated in The International Guiding Principles for Biomedical Research involving Animals, developed by the Council for International Organizations of Medical Sciences (CIOMS).

PDAC1 xenografts = assay: PDX treatment in nude mice; format: in vivo, NU-Foxn1nu nude mice
Description: as §4, §5

PDAC2 cultures = assay: Sphere formation assay; format: cell-based, human; settings: 0.1 µg/mL GEM or Cpd 1 at 1.25 or 2.5 µM
From the text: as §3

PDAC4 cultures = assay: Sphere formation assay; format: cell-based, human; settings: 0.1 µg/mL GEM or Cpd 1 at 1.25 or 2.5 µM
From the text: as §3

[3] = test system: sphere-derived PDAC2 cells; assay: Tumor initiating capacity of pre-treated cells injected subcutaneously; format: in vivo, NU-Foxn1nu nude mice; settings: cells treated 3 days with 0.1 µg/mL GEM or compound at 1.25 µM, then injected subcutaneously
Description: as §5

PDAC1 tumor cells = assay: Second generation tumor formation (serial passage, ELDA); format: in vivo, NU-Foxn1nu nude mice
Description: as §5
(§6) Results are presented as means ± standard error of the mean (SEM) unless stated otherwise. An unpaired two-tailed t test was performed to determine significance. p values < 0.05 were considered statistically significant. All analyses were performed using GraphPad Prism version 6.0 (San Diego, California USA). CSC frequencies and significance were determined using the on-line extreme-limiting dilution assays (ELDA) program (http://bioinf.wehi.edu.au/software/elda/).

PDAC3 tumor cells = assay: as above; format: in vivo, NU-Foxn1nu nude mice
Description: as §5, §6

C#CCCC1(CCN2CCC(CNc3ccc4ncc(C(=O)Nc5cccc(OC(F)(F)F)c5)n4n3)CC2)N=N1 [Cpd 25, 6-({1-[2-(3-But-3-ynyl-3H-diazirin-3-yl)-ethyl]-piperidin-4-ylmethyl}-amino)-imidazo [1,2-b]pyridazine-3-carboxylic acid (3-trifluoromethoxy-phenyl)-amide]
EC50 (PDAC4 3D spheres; Homo sapiens): 2620 nM

C#CCCC1(CC(=O)N2CCC(CNc3ccc4ncc(C(=O)Nc5cccc(OC(F)(F)F)c5)n4n3)CC2)N=N1 [Cpd 26, 6-({1-[2-(3-But-3-ynyl-3H-diazirin-3-yl)-acetyl]-piperidin-4-ylmethyl}-amino)-imidazo[1,2-b]pyridazine-3-carboxylic acid (3-trifluoromethoxy-phenyl)-amide]
effect on PDAC4 CSC viability (PDAC4 3D spheres): inactive

O=C(Nc1cccc(OC(F)(F)F)c1)c1cnc2ccc(N3CCCC4(CCNCC4)C3)nn12 [Cpd 3]
viability at 30 h, 5 µM [1]: 9%
EC50 [2]: 1500 nM

OC(c1cc(C(F)(F)F)nc2c(C(F)(F)F)cccc12)C1CCCCN1 (centres unmarked) [mefloquine, reference compound]
EC50 (PDAC2 3D spheres): 7600 nM

Nc1ccn([C@@H]2O[C@H](CO)[C@@H](O)C2(F)F)c(=O)n1 [gemcitabine]
tumor volume versus control (PDAC3 xenografts): significantly reduced
tumor volume versus control (PDAC1 xenografts; PDAC1 PDX, GEM 125 mg/kg i.p. biweekly, SIR 30 mg/kg oral gavage, 23 days): significantly reduced
autofluorescent-positive cells in tumors (PDAC1 xenografts; PDAC1 tumors, day 23, flow cytometry): marked increase
sphere-forming capacity (PDAC2 cultures): did not affect sphere formation
sphere-forming capacity (PDAC4 cultures): increased
tumor formation / growth from pre-treated cells [3]: gave rise to larger tumors
CSC freq (PDAC1 tumor cells; PDAC1, Extreme Limiting Dilution Analysis, listed as GEM): 1/272
Tumors/n (2nd generation) (PDAC1 tumor cells; PDAC1, no. cells 10^2): 5/8
Tumors/n (2nd generation) (PDAC1 tumor cells; PDAC1, no. cells 10^3): 7/8
CSC freq (PDAC3 tumor cells; PDAC3, Extreme Limiting Dilution Analysis, listed as GEM): 1/102
Tumors/n (2nd generation) (PDAC3 tumor cells; PDAC3, no. cells 10^2): 5/8
Tumors/n (2nd generation) (PDAC3 tumor cells; PDAC3, no. cells 10^3): 8/8
